Assay results published in PubChem BioAssay (NCI).
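The compound was tested at five concentrations on cells cultured in 96-well plates, with a 48-hour exposure period. TGI: total growth inhibition.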

Legend:
Experiment in all cases: DTP human tumour cell line panel, 48 h
OVCAR-4 ovarian = tested on: OVCAR-4 ovarian
UACC-62 melanoma = tested on: UACC-62 melanoma
SW-620 colon = tested on: SW-620 colon
SN12C renal = tested on: SN12C renal
UACC-257 melanoma = tested on: UACC-257 melanoma
786-0 renal = tested on: 786-0 renal
EKVX NSCLC = tested on: EKVX NSCLC
U251 CNS = tested on: U251 CNS
DMS 114 small cell lung = tested on: DMS 114 small cell lung
DLD-1 colon = tested on: DLD-1 colon
HOP-62 NSCLC = tested on: HOP-62 NSCLC
M14 melanoma = tested on: M14 melanoma
HOP-92 NSCLC = tested on: HOP-92 NSCLC
A549 NSCLC = tested on: A549 NSCLC
SK-OV-3 ovarian = tested on: SK-OV-3 ovarian
HOP-18 NSCLC = tested on: HOP-18 NSCLC
NCI-H460 lung = tested on: NCI-H460 lung
SF-268 CNS = tested on: SF-268 CNS
ACHN renal = tested on: ACHN renal
IGROV1 ovarian = tested on: IGROV1 ovarian
SK-MEL-28 melanoma = tested on: SK-MEL-28 melanoma
RPMI-8226 leukemia = tested on: RPMI-8226 leukemia
SF-539 CNS = tested on: SF-539 CNS
SNB-78 CNS = tested on: SNB-78 CNS
RXF 393 renal = tested on: RXF 393 renal
KM12 colon = tested on: KM12 colon
COLO 205 colon = tested on: COLO 205 colon
OVCAR-3 ovarian = tested on: OVCAR-3 ovarian
SK-MEL-2 melanoma = tested on: SK-MEL-2 melanoma
HL-60(TB) leukemia = tested on: HL-60(TB) leukemia
SF-295 CNS = tested on: SF-295 CNS
HCT-116 colon = tested on: HCT-116 colon
LXFL 529 NSCLC = tested on: LXFL 529 NSCLC
OVCAR-8 ovarian = tested on: OVCAR-8 ovarian
KM20L2 colon = tested on: KM20L2 colon
MOLT-4 leukemia = tested on: MOLT-4 leukemia
XF 498 CNS = tested on: XF 498 CNS
DMS 273 small cell lung = tested on: DMS 273 small cell lung
SK-MEL-5 melanoma = tested on: SK-MEL-5 melanoma
TK-10 renal = tested on: TK-10 renal
HT29 colon = tested on: HT29 colon
M19-MEL melanoma = tested on: M19-MEL melanoma
SNB-19 CNS = tested on: SNB-19 CNS
MALME-3M melanoma = tested on: MALME-3M melanoma
CCRF-CEM leukemia = tested on: CCRF-CEM leukemia
HCC-2998 colon = tested on: HCC-2998 colon
OVCAR-5 ovarian = tested on: OVCAR-5 ovarian
UO-31 renal = tested on: UO-31 renal
HCT-15 colon = tested on: HCT-15 colon
A498 renal = tested on: A498 renal
NCI-H23 lung = tested on: NCI-H23 lung
K-562 leukemia = tested on: K-562 leukemia
LOX IMVI melanoma = tested on: LOX IMVI melanoma
SR leukemia = tested on: SR leukemia
CAKI-1 renal = tested on: CAKI-1 renal
SNB-75 CNS = tested on: SNB-75 CNS
NCI-H226 lung = tested on: NCI-H226 lung
NCI-H522 lung = tested on: NCI-H522 lung

COCCCCCC(=O)CP(=O)(OC)OC
TGI (OVCAR-4 ovarian): > 100 µM
TGI (UACC-62 melanoma): > 100 µM
TGI (SW-620 colon): > 100 µM
TGI (SN12C renal): > 100 µM
TGI (UACC-257 melanoma): > 100 µM
TGI (786-0 renal): > 100 µM
TGI (EKVX NSCLC): > 100 µM
TGI (U251 CNS): > 100 µM
TGI (DMS 114 small cell lung): > 100 µM
TGI (DLD-1 colon): > 100 µM
TGI (HOP-62 NSCLC): > 100 µM
TGI (M14 melanoma): > 100 µM
TGI (HOP-92 NSCLC): > 100 µM
TGI (A549 NSCLC): > 100 µM
TGI (SK-OV-3 ovarian): > 100 µM
TGI (HOP-18 NSCLC): > 100 µM
TGI (NCI-H460 lung): > 100 µM
TGI (SF-268 CNS): > 100 µM
TGI (ACHN renal): > 100 µM
TGI (IGROV1 ovarian): > 100 µM
TGI (SK-MEL-28 melanoma): > 100 µM
TGI (RPMI-8226 leukemia): > 100 µM
TGI (SF-539 CNS): > 100 µM
TGI (SNB-78 CNS): > 100 µM
TGI (RXF 393 renal): > 100 µM
TGI (KM12 colon): > 100 µM
TGI (COLO 205 colon): > 100 µM
TGI (OVCAR-3 ovarian): > 100 µM
TGI (SK-MEL-2 melanoma): > 100 µM
TGI (HL-60(TB) leukemia): > 100 µM
TGI (SF-295 CNS): > 100 µM
TGI (HCT-116 colon): > 100 µM
TGI (LXFL 529 NSCLC): > 100 µM
TGI (OVCAR-8 ovarian): > 100 µM
TGI (KM20L2 colon): > 100 µM
TGI (MOLT-4 leukemia): > 100 µM
TGI (XF 498 CNS): > 100 µM
TGI (DMS 273 small cell lung): > 100 µM
TGI (SK-MEL-5 melanoma): > 100 µM
TGI (TK-10 renal): > 100 µM
TGI (HT29 colon): > 100 µM
TGI (M19-MEL melanoma): > 100 µM
TGI (SNB-19 CNS): > 100 µM
TGI (MALME-3M melanoma): > 100 µM
TGI (CCRF-CEM leukemia): > 100 µM
TGI (HCC-2998 colon): > 100 µM
TGI (OVCAR-5 ovarian): > 100 µM
TGI (UO-31 renal): > 100 µM
TGI (HCT-15 colon): > 100 µM
TGI (A498 renal): > 100 µM
TGI (NCI-H23 lung): > 100 µM
TGI (K-562 leukemia): > 100 µM
TGI (LOX IMVI melanoma): > 100 µM
TGI (SR leukemia): > 100 µM
TGI (CAKI-1 renal): > 100 µM
TGI (SNB-75 CNS): > 100 µM
TGI (NCI-H226 lung): > 100 µM
TGI (NCI-H522 lung): > 100 µM

O=C(/C=C/c1cccc([N+](=O)[O-])c1)c1cccnc1
TGI (OVCAR-4 ovarian): > 100 µM
TGI (UACC-62 melanoma): > 82.4 µM
TGI (SW-620 colon): 37.5 µM
TGI (SN12C renal): > 62.9 µM
TGI (UACC-257 melanoma): 97.7 µM
TGI (786-0 renal): 30.5 µM
TGI (EKVX NSCLC): > 100 µM
TGI (U251 CNS): 56.1 µM
TGI (DMS 114 small cell lung): 52.9 µM
TGI (DLD-1 colon): 52.2 µM
TGI (HOP-62 NSCLC): > 100 µM
TGI (M14 melanoma): 19.6 µM
TGI (HOP-92 NSCLC): > 100 µM
TGI (A549 NSCLC): > 100 µM
TGI (SK-OV-3 ovarian): > 100 µM
TGI (HOP-18 NSCLC): > 31.2 µM
TGI (NCI-H460 lung): > 100 µM
TGI (SF-268 CNS): > 86.4 µM
TGI (ACHN renal): > 100 µM
TGI (IGROV1 ovarian): 70.4 µM
TGI (SK-MEL-28 melanoma): 60.8 µM
TGI (RPMI-8226 leukemia): 44.8 µM
TGI (SF-539 CNS): 48.3 µM
TGI (SNB-78 CNS): > 94.2 µM
TGI (RXF 393 renal): 34.4 µM
TGI (KM12 colon): 43.3 µM
TGI (COLO 205 colon): > 87.1 µM
TGI (OVCAR-3 ovarian): 68.8 µM
TGI (SK-MEL-2 melanoma): > 100 µM
TGI (HL-60(TB) leukemia): 48.3 µM
TGI (SF-295 CNS): > 100 µM
TGI (HCT-116 colon): 33.3 µM
TGI (LXFL 529 NSCLC): 43 µM
TGI (OVCAR-8 ovarian): > 100 µM
TGI (KM20L2 colon): > 67.8 µM
TGI (MOLT-4 leukemia): 63.5 µM
TGI (XF 498 CNS): > 81.1 µM
TGI (DMS 273 small cell lung): 69.6 µM
TGI (SK-MEL-5 melanoma): 22.3 µM
TGI (TK-10 renal): > 100 µM
TGI (HT29 colon): 42.9 µM
TGI (M19-MEL melanoma): > 67.9 µM
TGI (SNB-19 CNS): > 94.7 µM
TGI (MALME-3M melanoma): > 100 µM
TGI (CCRF-CEM leukemia): 59.2 µM
TGI (HCC-2998 colon): > 66.1 µM
TGI (OVCAR-5 ovarian): > 100 µM
TGI (UO-31 renal): > 70.7 µM
TGI (HCT-15 colon): > 100 µM
TGI (A498 renal): > 62.9 µM
TGI (NCI-H23 lung): 44.8 µM
TGI (K-562 leukemia): > 78.5 µM
TGI (LOX IMVI melanoma): 40.1 µM
TGI (SR leukemia): 62.5 µM
TGI (CAKI-1 renal): > 90.8 µM
TGI (SNB-75 CNS): > 91.5 µM
TGI (NCI-H226 lung): > 100 µM
TGI (NCI-H522 lung): 25.3 µM
